In ChEMBL document CHEMBL3861963, “Hypocriols A-F, Heterodimeric Botryane Ethers from Hypocrea sp., an Insect-Associated Fungus” (J Nat Prod, 2016):

Assays:
Assay type in all cases: functional, cell-based
[1] = Antiproliferative activity against human HeLa cells measured after 24 hrs by CCK8 assay
[2] = Antiproliferative activity against human HCT116 cells measured after 24 hrs by CCK8 assay; details: HCT-116, 24 h
[3] = Antiproliferative activity against human A549 cells measured after 24 hrs by CCK8 assay; details: A549, 24 h
[4] = Antiproliferative activity against human MCF7 cells measured after 24 hrs by CCK8 assay; details: MCF7, 24 h

CC(=O)O[C@H]1C[C@@H](C)[C@@H]2[C@@H](O)[C@H](O[C@H]3OC[C@@]4(C)CC(C)(C)c5ccc(C)c3c54)[C@@]3(C)CC(C)(C)[C@H]1[C@]23O
IC50 [1]: 7.7 µM | IC50 [2]: 18.6 µM | IC50 [3]: 25.3 µM | IC50 [4]: 19.7 µM

CC(=O)O[C@H]1C[C@@H](C)[C@@H]2[C@@H](OCc3c(C)ccc4c3[C@@](C)(CO)CC4(C)C)OC[C@@]3(C)CC(C)(C)[C@H]1[C@]23O
IC50 [1]: 4.6 µM | IC50 [2]: 2.7 µM | IC50 [3]: 15.3 µM | IC50 [4]: 23.6 µM

CC(=O)O[C@H]1C[C@@H](C)[C@@H]2[C@@H](OC3OC[C@@]4(C)CC(C)(C)c5ccc(C)c3c54)[C@H](O)[C@@]3(C)CC(C)(C)[C@H]1[C@]23O (some centres undefined)
IC50 [1]: 3.1 µM

CO[C@H]1O[C@@H](O[C@H]2[C@H](O)[C@H]3[C@H](C)C[C@H](OC(C)=O)[C@H]4C(C)(C)C[C@@]2(C)[C@@]34O)[C@@]2(C)CC(C)(C)c3ccc(C)c1c32
IC50 [1]: 3.8 µM | IC50 [2]: 18.8 µM | IC50 [3]: 46.7 µM | IC50 [4]: 34.2 µM

CC(=O)O[C@H]1C[C@@H](C)[C@@H]2[C@@H](OC[C@@]3(C)CC(C)(C)c4ccc(C)c(CO)c43)OC[C@@]3(C)CC(C)(C)[C@H]1[C@]23O
IC50 [1]: 43.6 µM | IC50 [2]: 23 µM | IC50 [4]: 48.3 µM

CC(=O)O[C@H]1C[C@@H](C)[C@@H]2[C@@H](O)[C@H](O[C@@H]3OC[C@@]4(C)CC(C)(C)c5ccc(C)c3c54)[C@@]3(C)CC(C)(C)[C@H]1[C@]23O
IC50 [1]: 11.8 µM | IC50 [2]: 17.5 µM | IC50 [4]: 48.3 µM
